From US6803362B2, “Heterocyclic compounds” (Ortho-McNeil Pharmaceutical inc., priority 2001, dated 2004)

Tested on: Croton Oil Induced Topical Inflammation in Mice
Assay: Croton oil induced topical inflammation in mice (ear swelling)
Assay type: in vivo, mouse
Settings: 10 mg/kg s.c.; vs vehicle group; 6 h
Procedure: Male or female ICR derived mice weighing 22±1 g were used. Space allocation for 5 animals was 45×23×15 cm. Mice were house in APEC R cages. All animals were maintained in a controlled temperature (22° C.-24° C.) and humidity (60%-80%) environment with 12 h light/dark cycles. Free access to standard lab chow for Mice (LabDiet Rodent Diet, PMI Nutrition International, USA) and tap water was granted.
Acetone (Wako, Japan), Croton oil (Sigma, USA), Indomethacin (Sigma, USA) and Pyrogen free saline (Astar, Taiwan).
Groups of 5 ICR derived male mice weighing 22±1 g were used. […] Ear swelling was measured by Dyer model micrometer gauge 6 h after croton oil as an index of inflammation.

## CN1CCN(C(=O)c2cc3cc(Cl)ccc3[nH]2)CC1 [Compound 1, (5-Chloro-1H-indol-2-yl)-(4-methyl-piperazin-1-yl)-methanone]
  % inhib (ear swelling): (−28%)
